Laboratory results as given in patent US20250145665A1, “MACROCYCLIC PEPTIDES USEFUL AS MODULATORS OF TNF ALPHA” (Bristol-Myers Squibb Company, priority 2023, published 2025).
Starred links: 1 amine or outer side, 2 acyl side, 3 side chain; linkers in the order of their positions; H or OH if unused. Positions of bridges follow the written chain, without caps; N, C: chain ends. Non-standard residues stand in square brackets, D forms with d. Residues, ends and D or L forms follow the SMILES beside them. Bip(4'-NHAc) = CC(=O)Nc1ccc(-c2ccc(C[C@H](N)C(=O)O)cc2)cc1; Phe(3-CH2NH2) = O=C([C@H](Cc1cccc(CN[*:3])c1)N[*:1])[*:2]; Ala(morpholin-4-yl) = N[C@@H](CN1CCOCC1)C(=O)O; Bip = N[C@@H](Cc1ccc(-c2ccccc2)cc1)C(=O)O; Val(3-OH) = CC(C)(O)[C@H](N)C(=O)O; 2Pal = N[C@@H](Cc1ccccn1)C(=O)O; 3Pal = N[C@@H](Cc1cccnc1)C(=O)O; Aze = O=C(O)[C@@H]1CCN1; Sar = CNCC(=O)O

What follows are molecules tested against TNFα (Homo sapiens, UniProt P01375) (assay: TNF-Induced HEK-Blue Assay). Conditions: HEK-Blue-CD40L cells, NF-kB-driven secreted alkaline phosphatase reporter; TNFα 0.5 ng/ml; 18 h; read-out: TNF induced HEK-Blue assay IC50 value.
Sequence of TNFα (P01375 77-233 limits assumed): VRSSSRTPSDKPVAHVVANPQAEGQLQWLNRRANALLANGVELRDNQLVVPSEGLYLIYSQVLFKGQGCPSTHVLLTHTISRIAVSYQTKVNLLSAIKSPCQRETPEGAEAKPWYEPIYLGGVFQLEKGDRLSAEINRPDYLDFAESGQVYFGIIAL
Format: cell-based

Question: With `CC(=O)Nc1ccc(-c2ccc(C[C@@H]3NC(=O)[C@H](Cc4ccc(-c5ccccc5)cc4)NC(=O)[C@H](CN4CCOCC4)NC(=O)CSC[C@@H](C(=O)N[C@@H](CCCCN)C(=O)O)NC(=O)[C@H](CC(C)C)NC(=O)[C@H](CCCNC(=N)N)NC(=O)[C@H](C(C)C)NC(=O)[C@@H]4CCCN4C(=O)[C@H](C(C)C)NC(=O)[C@@H](CCCNC(=N)N)NC(=O)[C@H](CC(=O)O)NC(=O)[C@@H]4CCCN4C(=O)CN(C)C3=O)cc2)cc1` [Example 169] ({CH2CO}-[Ala(morpholin-4-yl)][Bip][Bip(4'-NHAc)][Sar]PD[dR]VPVRLCK-OH; thioether N-13) as the molecule, how does the IC50 read?
Answer: < 50 nM

Question: `CC(=O)Nc1ccc(-c2ccc(C[C@@H]3NC(=O)[C@H](Cc4ccc(-c5ccccc5)cc4)NC(=O)[C@H](CN4CCOCC4)NC(=O)CSC[C@@H](C(=O)NCC(N)=O)NC(=O)[C@H](CC(C)C)NC(=O)[C@H](Cc4ccc(O)cc4)NC(=O)[C@H](C(C)C)NC(=O)[C@@H]4CCN4C(=O)[C@H](C(C)C)NC(=O)[C@@H](CCCNC(=N)N)NC(=O)[C@H](CC(=O)O)NC(=O)[C@H](Cc4ccccn4)NC(=O)CN(C)C3=O)cc2)cc1` [Example 170] ({CH2CO}-[Ala(morpholin-4-yl)][Bip][Bip(4'-NHAc)][Sar][2Pal]D[dR]V[Aze]VYLCG-NH2; thioether N-13) was tested. Which IC50 did it give?
Answer: < 50 nM

Question: With `CC(=O)Nc1ccc(-c2ccc(C[C@@H]3NC(=O)[C@H](Cc4ccc(-c5ccccc5)cc4)NC(=O)[C@H](CN4CCOCC4)NC(=O)CSC[C@@H](C(=O)NCC(N)=O)NC(=O)[C@H](CC(C)C)NC(=O)[C@H](Cc4cccc(CN)c4)NC(=O)[C@H](C(C)C)NC(=O)[C@@H]4CCCN4C(=O)[C@H](C(C)C)NC(=O)[C@@H](CCCNC(=N)N)NC(=O)[C@H](CC(=O)O)NC(=O)[C@H](Cc4ccccn4)NC(=O)CN(C)C3=O)cc2)cc1` [Example 171] ({CH2CO}-[Ala(morpholin-4-yl)][Bip][Bip(4'-NHAc)][Sar][2Pal]D[dR]VPV[Phe(3-CH2NH2)]LCG-NH2; thioether N-13) as the molecule, how does the IC50 read?
Answer: < 50 nM

Question: How did the IC50 turn out when `CC(=O)Nc1ccc(-c2ccc(C[C@@H]3NC(=O)[C@H](Cc4ccc(-c5ccccc5)cc4)NC(=O)[C@H](CN4CCOCC4)NC(=O)CSC[C@@H](C(=O)NCC(N)=O)NC(=O)[C@H](CC(C)C)NC(=O)[C@H](Cc4ccccn4)NC(=O)[C@H](C(C)C)NC(=O)[C@@H]4CCCN4C(=O)[C@H](C(C)C)NC(=O)[C@@H](CCCNC(=N)N)NC(=O)[C@H](CC(=O)O)NC(=O)[C@H](Cc4ccccn4)NC(=O)CN(C)C3=O)cc2)cc1` [Example 172] ({CH2CO}-[Ala(morpholin-4-yl)][Bip][Bip(4'-NHAc)][Sar][2Pal]D[dR]VPV[2Pal]LCG-NH2; thioether N-13) was run?
Answer: < 50 nM

Question: Which IC50 does the source give for `CC(=O)Nc1ccc(-c2ccc(C[C@@H]3NC(=O)[C@H](Cc4ccc(-c5ccccc5)cc4)NC(=O)[C@H](CN4CCOCC4)NC(=O)CSC[C@@H](C(=O)NCC(N)=O)NC(=O)[C@H](CC(C)C)NC(=O)[C@H](Cc4ccc(O)cc4)NC(=O)[C@H](C(C)C)NC(=O)[C@@H]4CCCN4C(=O)[C@H](CC(N)=O)NC(=O)[C@@H](CCCNC(=N)N)NC(=O)[C@H](CC(=O)O)NC(=O)[C@H](Cc4ccccn4)NC(=O)CN(C)C3=O)cc2)cc1` [Example 173] ({CH2CO}-[Ala(morpholin-4-yl)][Bip][Bip(4'-NHAc)][Sar][2Pal]D[dR]NPVYLCG-NH2; thioether N-13) here?
Answer: 50 to 200 nM

Question: `CC(=O)Nc1ccc(-c2ccc(C[C@@H]3NC(=O)[C@H](Cc4ccc(-c5ccccc5)cc4)NC(=O)[C@H](CN4CCOCC4)NC(=O)CSC[C@@H](C(=O)NCC(N)=O)NC(=O)[C@H](CC(C)C)NC(=O)[C@H](Cc4ccccc4)NC(=O)[C@H](C(C)C)NC(=O)[C@@H]4CCCN4C(=O)[C@H](C(C)C)NC(=O)[C@@H](CCCNC(=N)N)NC(=O)[C@H](CC(=O)O)NC(=O)[C@H](Cc4ccccc4)NC(=O)CN(C)C3=O)cc2)cc1` [Example 174] ({CH2CO}-[Ala(morpholin-4-yl)][Bip][Bip(4'-NHAc)][Sar]FD[dR]VPVFLCG-NH2; thioether N-13) was tested. Which IC50 did it give?
Answer: 50 to 200 nM

Question: Which IC50 does the source give for `CC(=O)Nc1ccc(-c2ccc(C[C@@H]3NC(=O)[C@H](Cc4ccc(-c5ccccc5)cc4)NC(=O)[C@H](C(C)(C)O)NC(=O)CSC[C@@H](C(=O)NCC(N)=O)NC(=O)[C@H](CC(C)C)NC(=O)[C@H](Cc4ccc(O)cc4)NC(=O)[C@H](C(C)C)NC(=O)[C@@H]4CCCN4C(=O)[C@H](C(C)C)NC(=O)[C@@H](CCCNC(=N)N)NC(=O)[C@H](CC(=O)O)NC(=O)[C@H](Cc4ccccn4)NC(=O)CN(C)C3=O)cc2)cc1` [Example 175] ({CH2CO}-[Val(3-OH)][Bip][Bip(4'-NHAc)][Sar][2Pal]D[dR]VPVYLCG-NH2; thioether N-13) here?
Answer: < 50 nM

Question: For `CC(=O)Nc1ccc(-c2ccc(C[C@@H]3NC(=O)[C@H](Cc4ccc(-c5ccccc5)cc4)NC(=O)[C@H](CN4CCOCC4)NC(=O)CSC[C@@H](C(=O)NCC(N)=O)NC(=O)[C@H](CC(C)C)NC(=O)[C@H](Cc4cccnc4)NC(=O)[C@H](C(C)C)NC(=O)[C@@H]4CCCN4C(=O)[C@H](C(C)C)NC(=O)[C@@H](CCCNC(=N)N)NC(=O)[C@H](CC(=O)O)NC(=O)[C@H](Cc4ccccn4)NC(=O)CN(C)C3=O)cc2)cc1` [Example 176] ({CH2CO}-[Ala(morpholin-4-yl)][Bip][Bip(4'-NHAc)][Sar][2Pal]D[dR]VPV[3Pal]LCG-NH2; thioether N-13), which IC50 is on record?
Answer: < 50 nM

Question: Which IC50 does the source give for `CC(=O)Nc1ccc(-c2ccc(C[C@@H]3NC(=O)[C@H](Cc4ccc(-c5ccccc5)cc4)NC(=O)[C@H](CN4CCOCC4)NC(=O)CSC[C@@H](C(=O)NCC(N)=O)NC(=O)[C@H](CC(C)C)NC(=O)[C@H](Cc4ccc(O)cc4)NC(=O)[C@H](C(C)C)NC(=O)[C@@H]4CCCN4C(=O)[C@H](Cc4ccc(O)cc4)NC(=O)[C@@H](CCCNC(=N)N)NC(=O)[C@H](CC(=O)O)NC(=O)[C@H](Cc4ccccn4)NC(=O)CN(C)C3=O)cc2)cc1` [Example 177] ({CH2CO}-[Ala(morpholin-4-yl)][Bip][Bip(4'-NHAc)][Sar][2Pal]D[dR]YPVYLCG-NH2; thioether N-13) here?
Answer: 50 to 200 nM

Question: Which IC50 does the source give for `CC(=O)Nc1ccc(-c2ccc(C[C@@H]3NC(=O)[C@H](Cc4ccc(-c5ccccc5)cc4)NC(=O)[C@H](C(C)(C)O)NC(=O)CSC[C@@H](C(=O)NCC(N)=O)NC(=O)[C@H](CC(C)C)NC(=O)[C@H](Cc4ccc(O)cc4)NC(=O)[C@H](C(C)C)NC(=O)[C@@H]4CCCN4C(=O)[C@H](Cc4ccc(O)cc4)NC(=O)[C@@H](CCCNC(=N)N)NC(=O)[C@H](CC(=O)O)NC(=O)[C@H](Cc4ccccn4)NC(=O)CN(C)C3=O)cc2)cc1` [Example 178] ({CH2CO}-[Val(3-OH)][Bip][Bip(4'-NHAc)][Sar][2Pal]D[dR]YPVYLCG-NH2; thioether N-13) here?
Answer: < 50 nM

Question: How did the IC50 turn out when `CC(=O)Nc1ccc(-c2ccc(C[C@@H]3NC(=O)[C@H](Cc4ccc(-c5ccccc5)cc4)NC(=O)[C@H](CN4CCOCC4)NC(=O)CSC[C@@H](C(=O)N[C@@H](CCCCN)C(=O)O)NC(=O)[C@H](CC(C)C)NC(=O)[C@H](Cc4ccc(O)cc4)NC(=O)[C@H](C(C)C)NC(=O)[C@@H]4CCCN4C(=O)[C@H](C(C)C)NC(=O)[C@@H](CCCNC(=N)N)NC(=O)[C@H](CC(=O)O)NC(=O)[C@H](Cc4ccccn4)NC(=O)CN(C)C3=O)cc2)cc1` [Example 179] ({CH2CO}-[Ala(morpholin-4-yl)][Bip][Bip(4'-NHAc)][Sar][2Pal]D[dR]VPVYLCK-OH; thioether N-13) was run?
Answer: 50 to 200 nM
